≈ marks a conversion by molar mass, not a printed value.
Key:
in vivo = settings: mouse, po
[1] = Solubility of the compound; assay type: physicochemical
[2] = biological target: T1, Protein-glutamine gamma-glutamyltransferase (Homo sapiens, UniProt P21980); test: Inhibition of TG2 (unknown origin)
T1 sequence (P21980 whole entry): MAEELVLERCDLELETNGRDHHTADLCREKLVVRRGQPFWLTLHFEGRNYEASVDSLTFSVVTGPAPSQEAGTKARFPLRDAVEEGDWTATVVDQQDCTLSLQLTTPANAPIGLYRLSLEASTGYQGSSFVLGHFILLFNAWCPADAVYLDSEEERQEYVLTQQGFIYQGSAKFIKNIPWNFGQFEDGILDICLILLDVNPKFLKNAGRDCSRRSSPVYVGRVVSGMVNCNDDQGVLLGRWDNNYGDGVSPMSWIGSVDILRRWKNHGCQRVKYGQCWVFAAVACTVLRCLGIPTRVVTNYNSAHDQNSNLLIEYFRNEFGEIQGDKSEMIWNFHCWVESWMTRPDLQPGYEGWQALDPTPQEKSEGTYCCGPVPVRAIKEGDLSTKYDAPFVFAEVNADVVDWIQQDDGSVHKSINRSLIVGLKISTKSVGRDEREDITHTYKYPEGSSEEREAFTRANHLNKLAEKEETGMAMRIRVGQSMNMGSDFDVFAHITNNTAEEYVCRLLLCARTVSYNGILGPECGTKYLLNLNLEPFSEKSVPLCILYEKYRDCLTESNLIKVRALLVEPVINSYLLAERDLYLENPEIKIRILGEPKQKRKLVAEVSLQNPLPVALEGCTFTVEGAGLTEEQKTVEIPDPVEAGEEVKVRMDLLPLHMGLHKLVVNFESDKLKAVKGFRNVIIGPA

bioavailability (in vivo)	solubility [1]	IC50 [2]	Structure (SMILES)
68%	58 µg/mL (≈ 158 µM)		O=c1cc(N2CCOCC2)cc(N2CCCCC[C@@H]2Cc2ccccc2)[nH]1
		62 nM	C=CC(=O)NCCCCC(NC(=O)OCc1ccccc1)C(=O)N1CCN(c2ccccc2Cl)CC1 (stereo not drawn)

Source: ChEMBL document CHEMBL5223149, “The Emerging Landscape of Small-Molecule Therapeutics for the Treatment of Huntington's Disease” (J Med Chem, 2022)
